Source: US8637523B2, “Compounds for the reduction of beta-amyloid production” (Bristol-Myers Squibb Company, priority 2010, dated 2014)

System: Aβ42
Assay: Cellular assay for inhibition of Aβ1-42 production (H4 APP751 SWE clone 8.20)
Assay type: cell-based
Details: 19 h, H4 APP751 SWE clone 8.20 cells, 19 h incubation; read-out: Activity Rating (Aβ42 cellular IC50), class symbol
Outline: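 Aβ42 read by time-resolved FRET using neoepitope antibody 565 (0.8 ng/well) paired with N-terminal 26D6 (75 ng/well), incubated overnight at 4 °C, then IC50 curve fitting. Cells: H4 APP751 Swedish clone 8.20, exposed to compound for 19 h at 37 °C.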

SMILES | IC50 [nM]
Cc1ncnn1-c1ccc2cc1OCCCCNc1nc(nc3c1CCC3c1ccccc1)N2 (stereo not shown) [Example 47B, 7-(5-methyl-1H-1,2,4-triazol-1-yl)-18-phenyl-10,11,12,13,14,16,17,18-octahydro-15,2-(azeno)-8,4-(metheno)cyclopenta[h][1,6,10,12]oxatriazacycloheptadecine] | 10 to 100
Cc1ncnn1-c1ccc2cc1OCCCCN(C)c1nc(nc3c1CCC3c1ccccc1)N2 (stereo not shown) [Example 48A, 14-methyl-7-(5-methyl-1H-1,2,4-triazol-1-yl)-18-phenyl-10,11,12,13,14,16,17,18-octahydro-15,2-(azeno)-8,4-(metheno)cyclopenta[h][1,6,10,12]oxatriazacycloheptadecine] | < 10
Cc1ncn(-c2ccc3cc2OCCCCNc2nc(nc4c2CCC4c2ccccc2)N3)n1 (stereo not shown) [Example 49B, 7-(3-methyl-1H-1,2,4-triazol-1-yl)-18-phenyl-10,11,12,13,14,16,17,18-octahydro-15,2-(azeno)-8,4-(metheno)cyclopenta[h][1,6,10,12]oxatriazacycloheptadecine] | 10 to 100
Cc1ncn(-c2ccc3cc2OCCCCN(C)c2nc(nc4c2CCC4c2ccccc2)N3)n1 (stereo not shown) [Example 50B, 14-methyl-7-(3-methyl-1H-1,2,4-triazol-1-yl)-18-phenyl-10,11,12,13,14,16,17,18-octahydro-15,2-(azeno)-8,4-(metheno)cyclopenta[h][1,6,10,12]oxatriazacycloheptadecine] | 10 to 100
Cc1ncn(-c2ccc3cc2OCCN(C)CCNc2nc(nc4c2CCC4c2ccc(F)cc2)N3)n1 (stereo not shown) [Example 56B, 19-(4-fluorophenyl)-12-methyl-7-(3-methyl-1H-1,2,4-triazol-1-yl)-11,12,13,14,15,17,18,19-octahydro-10H-16,2-(azeno)-8,4-(metheno)cyclopenta[i][1,4,7,11,13]oxatetraazacyclooctadecine] | 10 to 100
Cc1ncn(-c2ccc3cc2OC/C=C\CN(C)c2nc(nc4c2CCC4c2ccc(F)cc2F)N3)n1 (stereo not shown) [Example 57B, (11Z)-18-(2,4-difluorophenyl)-14-methyl-7-(3-methyl-1H-1,2,4-triazol-1-yl)-10,13,14,16,17,18-hexahydro-15,2-(azeno)-8,4-(metheno)cyclopenta[h][1,6,10,12]oxatriazacycloheptadecine] | 10 to 100
Cc1ncn(-c2ccc3cc2OCCCN(C)c2nc(nc4c2CCC4c2ccccc2)N3)n1 (stereo not shown) [Example 60B, 13-methyl-7-(3-methyl-1H-1,2,4-triazol-1-yl)-17-phenyl-11,12,13,15,16,17-hexahydro-10H-14,2-(azeno)-8,4-(metheno)cyclopenta[g][1,5,9,11]oxatriazacyclohexadecine] | 10 to 100
Cc1ncn(-c2ccc3cc2OCCCCN(C)c2nc(nc4c2CCC4c2ccc(F)cc2F)N3)n1 (stereo not shown) [Example 61B, 18-(2,4-difluorophenyl)-14-methyl-7-(3-methyl-1H-1,2,4-triazol-1-yl)-10,11,12,13,14,16,17,18-octahydro-15,2-(azeno)-8,4-(metheno)cyclopenta[h][1,6,10,12]oxatriazacycloheptadecine] | 10 to 100

Same assay, conditions: 19 h, H4 APP751 SWE clone 8.20 cells, 19 h incubation; unit inferred; read-out: Activity Rating (Aβ42 cellular IC50), numeric value

SMILES | IC50 [nM]
Cc1ncnn1-c1ccc2cc1OCCCCN(C)c1nc(nc3c1CCC3c1ccccc1)N2 (stereo not shown) [Example 48B, 14-methyl-7-(5-methyl-1H-1,2,4-triazol-1-yl)-18-phenyl-10,11,12,13,14,16,17,18-octahydro-15,2-(azeno)-8,4-(metheno)cyclopenta[h][1,6,10,12]oxatriazacycloheptadecine] | 88
Cc1ncn(-c2ccc3cc2OC/C=C\CN(C)c2nc(nc4c2CCC4c2ccc(F)cc2F)N3)n1 (stereo not shown) [Example 57A, (11Z)-18-(2,4-difluorophenyl)-14-methyl-7-(3-methyl-1H-1,2,4-triazol-1-yl)-10,13,14,16,17,18-hexahydro-15,2-(azeno)-8,4-(metheno)cyclopenta[h][1,6,10,12]oxatriazacycloheptadecine] | 5.5
Cc1ncn(-c2ccc3cc2OCCCCN(C)c2nc(nc4c2CCC4c2ccc(F)cc2F)N3)n1 (stereo not shown) [Example 61A, 18-(2,4-difluorophenyl)-14-methyl-7-(3-methyl-1H-1,2,4-triazol-1-yl)-10,11,12,13,14,16,17,18-octahydro-15,2-(azeno)-8,4-(metheno)cyclopenta[h][1,6,10,12]oxatriazacycloheptadecine] | 4.1

Same assay, conditions: H4 APP751 SWE clone 8.20 cells, 19 h incubation; read-out: Activity Rating (Aβ42 cellular IC50), class symbol

SMILES | IC50 [nM]
Cc1ncn(-c2ccc3cc2OCCCCNc2nc(nc4c2CCC4c2ccccc2)N3)n1 (stereo not shown) [Example 49A, 7-(3-methyl-1H-1,2,4-triazol-1-yl)-18-phenyl-10,11,12,13,14,16,17,18-octahydro-15,2-(azeno)-8,4-(metheno)cyclopenta[h][1,6,10,12]oxatriazacycloheptadecine] | < 10
Cc1ncn(-c2ccc3cc2OCCCCN(C)c2nc(nc4c2CCC4c2ccccc2)N3)n1 (stereo not shown) [Example 50A, 14-methyl-7-(3-methyl-1H-1,2,4-triazol-1-yl)-18-phenyl-10,11,12,13,14,16,17,18-octahydro-15,2-(azeno)-8,4-(metheno)cyclopenta[h][1,6,10,12]oxatriazacycloheptadecine] | < 10
Cc1ncn(-c2ccc3cc2OC/C=C/CNc2nc(nc4c2CCC4c2ccc(F)cc2F)N3)n1 (stereo not shown) [Example 52B, (11E)-18-(2,4-difluorophenyl)-7-(3-methyl-1H-1,2,4-triazol-1-yl)-10,13,14,16,17,18-hexahydro-15,2-(azeno)-8,4-(metheno)cyclopenta[h][1,6,10,12]oxatriazacycloheptadecine] | 10 to 100
Cc1ncnn1-c1ccc2cc1OCC=CCNc1nc(nc3c1CCC3c1ccc(F)cc1F)N2 (stereo not shown) [Example 54A, (11E)-18-(2,4-difluorophenyl)-7-(5-methyl-1H-1,2,4-triazol-1-yl)-10,13,14,16,17,18-hexahydro-15,2-(azeno)-8,4-(metheno)cyclopenta[h][1,6,10,12]oxatriazacycloheptadecine] | < 10
Cc1ncnn1-c1ccc2cc1OCC=CCNc1nc(nc3c1CCC3c1ccc(F)cc1F)N2 (stereo not shown) [Example 54B, (11E)-18-(2,4-difluorophenyl)-7-(5-methyl-1H-1,2,4-triazol-1-yl)-10,13,14,16,17,18-hexahydro-15,2-(azeno)-8,4-(metheno)cyclopenta[h][1,6,10,12]oxatriazacycloheptadecine] | 10 to 100
Cc1ncn(-c2ccc3cc2OCC=CCCc2nc(nc4c2CCC4c2ccccc2)N3)n1 (stereo not shown) [Example 59A, (11E)-7-(3-methyl-1H-1,2,4-triazol-1-yl)-18-phenyl-10,13,14,16,17,18-hexahydro-15,2-(azeno)-8,4-(metheno)cyclopenta[h][1,10,12]oxadiazacycloheptadecine] | < 10

Same assay, conditions: H4 APP751 SWE clone 8.20 cells, 19 h incubation; unit inferred; read-out: Activity Rating (Aβ42 cellular IC50), numeric value

SMILES | IC50 [nM]
Cc1ncn(-c2ccc3cc2OC/C=C/CNc2nc(nc4c2CCC4c2ccc(F)cc2F)N3)n1 (stereo not shown) [Example 52A, (11E)-18-(2,4-difluorophenyl)-7-(3-methyl-1H-1,2,4-triazol-1-yl)-10,13,14,16,17,18-hexahydro-15,2-(azeno)-8,4-(metheno)cyclopenta[h][1,6,10,12]oxatriazacycloheptadecine] | 11
Cc1ncn(-c2ccc3cc2OCC=CCCc2nc(nc4c2CCC4c2ccccc2)N3)n1 (stereo not shown) [Example 59B, (11E)-7-(3-methyl-1H-1,2,4-triazol-1-yl)-18-phenyl-10,13,14,16,17,18-hexahydro-15,2-(azeno)-8,4-(metheno)cyclopenta[h][1,10,12]oxadiazacycloheptadecine] | 32
